How the values were obtained:
Format in all cases: cell-based
[1] = test system: Human embryonic stem cells; assay: hESC 19-day 5-step differentiation with varying DAPT concentrations, real-time quantitative PCR; conditions: DAPT 0, 1, 3 or 10 μM for 2 days in step 4
Protocol: Human embryonic stem cells were differentiated for 19 days via a 5-step protocol to achieve islet hormone-expressing cells. The first step comprised 5 days differentiation in activin A (100 ng/mL) to robustly produce DE (D'Amour, K., et al., Nature Biotechnology 23, 1534-1541, (2005)). Step 2 comprised 2 days differentiation in RPMI with 2% FBS containing FGF10 (50 ng/mL) and KAAD-cyclopamine (0.5 μM). Step 3 comprised 4 days differentiation in CMRL with B27 supplement (1:100) containing FGF10 (50 ng/mL), KAAD-cyclopamine (0.2 μM), and retinoic acid (1 μM). The fourth step comprised 2 days treatment with CMRL with B27 supplement (1:100) containing exendin 4 (40 ng/mL) and with varying concentrations of the gamma secretase inhibitor DAPT (0 μM, 1 μM, 3 μM, or 10 μM). The last step comprised 6 days differentiation in DMEM with B27 supplement (1:100) containing nicotinamide (10 mM), exendin 4 (40 ng/mL), and insulin-like growth factor (IGF)-1 (50 ng/mL). Duplicate samples were taken from each plate and gene expression was analyzed by real-time quantitative PCR.

[2] = test system: Human embryonic stem cells; assay: hESC 16-day 4-step or 5-step differentiation time course, real-time quantitative PCR
Protocol: Human embryonic stem cells were differentiated for 16 days via either a 4-step or 5-step protocol to achieve islet hormone-expressing cells. The first step comprised 3 days differentiation in activin A (100 ng/mL) to robustly produce DE (D'Amour, K., et al., Nature Biotechnology 23, 1534-1541, (2005)). Step 2 comprised 3 days differentiation in RPMI with 2% FBS containing FGF10 (50 ng/mL) and KAAD-cyclopamine (0.2 μM). In the 4-step protocol, step 3 comprised 4 days differentiation in CMRL with B27 supplement (1:100) containing FGF10 (50 ng/mL), KAAD-cyclopamine (0.2 μM), retinoic acid (2 μM), and DAPT (1 μM). In the 5-step protocol, this 4 day period was broken into two separate treatments in the same base media. For 2 days the media contained FGF10 (50 ng/mL), KAAD-cyclopamine (0.2 μM), and retinoic acid (2 μM). During the subsequent 2 days, the FGF10 was removed and the gamma-secretase inhibitor DAPT (1 μM) was added. The last step of both protocols comprised 6 days differentiation in DMEM with B27 supplement (1:100) containing nicotinamide (10 mM), exendin 4 (40 ng/mL), hepatocyte growth factor (HGF 25 ng/mL), and insulin-like growth factor (IGF)-1 (50 ng/mL). Duplicate samples were taken from each plate at multiple time points and gene expression was analyzed by real-time quantitative PCR.

[3] = test system: Human embryonic stem cell lines; assay: hESC differentiation by 5-step 17-day protocol (treatments i-iv), gene expression by real-time quantitative PCR; conditions: KAAD-cyclopamine maintained in the presence of retinoic acid during step 3
Protocol: Human embryonic stem cell lines were differentiated for 17 days via a 5-step protocol to produce pancreatic islet hormone-expressing cells. […] Step 2 comprised 3 days differentiation in RPMI with 2% FBS containing one of the following: (a) 100 ng/mL activin A (treatment i), (b) no exogenous growth factors (treatment ii), or (c) 50 ng/mL FGF10 and 0.5 μM KAAD-cyclopamine (treatments iii and iv). Step 3 comprised 3 days differentiation in CMRL with B27 supplement (1:100) containing either (a) 2 μM retinoic acid (treatments i-iii) or (b) 2 μM retinoic acid and 0.5 μM KAAD-cyclopamine (treatment iv). Steps 4 and 5 were the same for all conditions (treatments i-iv). Step 4 comprised 2 days differentiation in CMRL with B27 supplement (1:100) containing 1 μM DAPT and 40 ng/mL exendin 4. Step 5 comprised 5 days differentiation in CMRL with B27 supplement (1:100) containing 40 ng/mL exendin 4. Duplicate samples were taken from each plate at multiple time points and gene expression was analyzed by real-time quantitative PCR.

[4] = test system: Human embryonic stem cells; assay: hESC 17-day 4-step differentiation with or without retinoic acid, real-time quantitative PCR; conditions: retinoic acid about 0.1-5 μM for at least about 1 day
Protocol: Human embryonic stem cells were differentiated for 17 days via a 4-step protocol to achieve islet hormone-expressing cells. The first step comprised 5 days differentiation in activin A (100 ng/mL) to robustly produce DE (D'Amour, K., et al., Nature Biotechnology 23, 1534-1541, (2005)). Step 2 comprised 2 days differentiation in RPMI with 2% FBS containing FGF10 (50 ng/mL) and KAAD-cyclopamine (1 μM) followed by 2 more days that also contained DAPT (1 μM). Step 3 comprised 5 days differentiation in CMRL with B27 supplement (1:100) containing FGF10 (50 ng/mL), KAAD-cyclopamine (1 μM), DAPT (1 μM) and either with or without the addition of retinoic acid (1 μM). The fourth step comprised 4 days differentiation in CMRL with B27 supplement (1:100) containing nicotinamide (10 mM), exendin 4 (50 ng/mL), hepatocyte growth factor (HGF 25 ng/mL), and insulin-like growth factor (IGF)-1 (50 ng/mL). Duplicate samples were taken from each plate at multiple time points and gene expression was analyzed by real-time quantitative PCR.

Human ESCs [5] = assay: hESC differentiation to insulin-expressing cells using noggin without exogenous retinoids, real-time PCR
Protocol: Human ESCs were differentiated to definitive endoderm cells via treatment with activin A (100 ng/ml) and Wnt3a (25 ng/ml) in RPMI+0% FBS for the first day and then for 2 more days with activin A (100 ng/ml) alone in RPMI+0.2% v/v FBS. Definitive endoderm was differentiated to foregut endoderm by treatment with KGF (50 ng/ml) and KAAD-cyclopamine (0.25 μM) for 3 days in RPMI+2% v/v FBS. Differentiation then proceeded in DMEM+1% v/v B27 supplement containing KGF (50 ng/ml) and KAAD-cyclopamine (0.25 μM) for one day followed by 5 additional days of the same with or without the addition of noggin (100 ng/ml). The B27 supplement used was either with (B27+) or without (B27-) vitamin A. On days 13, 14 and 15 of differentiation, the KGF was removed but the KAAD-cyclopamine (0.25 μM) and noggin (when used) remained in the culture medium. The differentiation medium for days 16-19 consisted of CMRL+1% v/v B27 (with or without vitamin A as in previous conditions) with no additional factors. Cultures were sampled in duplicate on days 3, 6, 9, 12, 15 and 19 of differentiation and analyzed for expression of pancreatic markers using real-time PCR.

[6] = test system: Human embryonic stem cells; assay: PDX1 protein and mRNA expression under different media conditions; conditions: insulin about 0.2-20 μg/ml or insulin-like growth factor about 10-500 ng/ml
Protocol: Human embryonic stem cells were differentiated in RPMI medium containing activin A (100 ng/ml) for 5 days. The FBS concentrations changed from 0% for the first 24 hours followed by 0.2% for the next 24 hrs and then to 2% for the remaining 3 days. During the next 4 days, the plates were subjected to different media conditions. They were either incubated in i) RPMI with 2% FBS and activin A (100 ng/ml), ii) RPMI with 2% FBS, activin A (25 ng/ml) and retinoic acid, iii) CMRL with 0.2% FBS and B27 supplement (1:100), activin A (25 ng/ml) and retinoic acid, and iv) CMRL with 0.2% FBS and B27 supplement (1:100), activin A (25 ng/ml), retinoic acid and exendin (40 ng/ml). The concentration of retinoic acid changed from 2 μM for 48 hours followed by 1 μM for 24 hours to 0.2 μM for the last 24 hours. The cells were harvested for protein and mRNA analyses on days 7, 8 and 9.
Without sufficient insulin signaling, PDX1 mRNA was expressed without significant translation into PDX1 protein (FIGS. 4A-4B). The base medium can be RPMI, CMRL, OptiMEM or DMEM with or without 2% FBS. If the base medium is supplemented with sufficient insulin/IGF and FGF10, PDX1 protein will be expressed.

[7] = test system: Human embryonic stem cells; assay: hESC 21-day 4-step differentiation with three step-1 conditions, real-time quantitative PCR; conditions: activin A 100 ng/ml, or follistatin 50 ng/ml and noggin 100 ng/ml
Protocol: Human embryonic stem cells were differentiated for 21 days via a 4-step protocol to achieve islet hormone-expressing cells. Three different conditions were used for the first step after which all plates received the identical treatment. The first step comprised 5 days differentiation under one of the following conditions: i) activin A (100 ng/ml) to robustly produce DE (D'Amour, K., et al., Nature Biotechnology 23, 1534-1541, (2005)), ii) 2% FBS with no exogenous growth factors, thereby producing mesoderm and extraembryonic endoderm, or iii) follistatin (50 ng/ml) and noggin (100 ng/ml), thereby producing neural ectoderm. Step 2 comprised 3 days differentiation in RPMI with 2% FBS containing FGF10 (50 ng/mL) and KAAD-cyclopamine (1 μM). Step 3 comprised 5 days differentiation in CMRL with B27 supplement (1:100) containing FGF10 (50 ng/mL), KAAD-cyclopamine (1 μM), retinoic acid (2 μM), and DAPT (1 μM). The fourth step consisted of 8 days differentiation in DMEM with B27 supplement (1:100) containing nicotinamide (10 mM), exendin 4 (40 ng/mL), hepatocyte growth factor (HGF-25 ng/mL), and insulin-like growth factor (IGF)-1 (50 ng/mL). Duplicate samples were taken from each plate at multiple time points and gene expression was analyzed by real-time quantitative PCR.

Human ESCs [8] = assay: hESC differentiation using combination of noggin and retinoic acid, QPCR
Protocol: Human ESCs were differentiated to definitive endoderm via treatment with activin A (100 ng/ml) and Wnt3a (25 ng/ml) in RPMI+0% FBS for the first day and then for 2 more days with activin A (100 ng/ml) alone in RPMI+0.2% v/v FBS. Definitive endoderm was differentiated to foregut endoderm by treatment with KGF (50 ng/ml) and KAAD-cyclopamine (0.25 μM) for 3 days in RPMI+2% v/v FBS. Differentiation then proceeded for 3 days in DMEM+1% v/v B27 supplement containing KAAD-cyclopamine (0.25 μM) and all-trans retinoic acid (0.1 μM or 2 μM) with or without the addition of noggin (0, 30 or 100 ng/ml). This was followed by a 2 day treatment period with the gamma-secretase inhibitor DAPT (1 μM) provided in DMEM+1% v/v B27 and subsequently the cells were cultured in CMRL+1% v/v B27 with no additional growth factors.

[9] = noggin 100 ng/ml, B27 with or without vitamin A

C[C@H](NC(=O)Cc1cc(F)cc(F)c1)C(=O)N[C@H](C(=O)OC(C)(C)C)c1ccccc1 [DAPT, N—[N-(3,5-difluorophenacetyl)-L-alanyl]-S-phenylglycine t-butyl ester]
Effect on expression of pancreatic hormones and transcription factors after 19 days [1]: very little to no insulin, glucagon, somatostatin or principal pancreatic transcription factors were produced in the absence of DAPT | Effect on NGN3 and PAX4 expression ([2]; 2-4 day application of DAPT in terminal days of RA addition or after RA withdrawal): transient induction of NGN3 and PAX4 expression

CC1=C2C[C@H]3[C@@H](CC=C4CC(=O)CC[C@@]43C)[C@@H]2CC[C@]12O[C@@H]1C[C@H](C)CN(CCNC(=O)CCCCCNC(=O)CCc3ccccc3)[C@H]1[C@H]2C [KAAD-cyclopamine]
Increase of performance of endocrine differentiation relative to treatment iii [3]: 2 fold

CC1=C(/C=C/C(C)=C/C=C/C(C)=C/C(=O)O)C(C)(C)CCC1 [retinoic acid, all-trans retinoic acid]
Effect on insulin expression [4]: insulin was not expressed unless retinoic acid was applied | Effect on HNF6 and PDX1 expression ([2]; retinoic acid 2 μM in step 3): robustly increased expression of HNF6 and PDX1

CC1=C(/C=C/C(C)=C/C=C/C(C)=C/CO)C(C)(C)CCC1 [vitamin A, retinol, reference compound]
Magnitude of pancreatic hormone expression (Human ESCs [5]; B27 supplement with versus without vitamin A): enhanced by the presence of vitamin A

insulin-like growth factor
Effect on PDX1 protein expression [6]: promotes the expression of PDX1 protein

insulin: insulin as medium supplement
Effect on PDX1 protein expression [6]: promotes the expression of PDX1 protein

B1: activin A: growth factor of the TGFβ superfamily (protein, UniProt P08476 311-426, looked up)
Inhibin beta A chain: GLECDGKVNICCKKQFFVSFKDIGWNDWIIAPSGYHANYCEGECPSHIAGTSGSSLSFHSTVINHYRMRGHSPFANLKSCCVPTKLRPMSMLYYDDGQNIIKKDIQNMIVEECGCS
Lineage marker expression at 5 days of differentiation (step 1) [7]: robust production of definitive endoderm

B2: noggin: recombinant human Noggin (protein, UniProt Q13253 28-232, looked up)
Noggin: QHYLHIRPAPSDNLPLVDLIEHPDPIFDPKEKDLNETLLRSLLGGHYDPGFMATSPPEDRPGGGGGAAGGAEDLAELDQLLRQRPSGAMPSEIKGLEFSEGLAQGKKQRLSKKLRRKLQMWLWSQTFCPVLYAWNDLGSRFWPRYVKVGSCFSKRSCSVPEGMVCKPSKSVHLTVLRWRCQRRGGQRCGWIPIQYPIISECKCSC
Expression of pancreatic hormones INS, GCG, SST and GHRL (Human ESCs [5]; noggin 100 ng/ml): also dependent on the presence of noggin | Induction of PDX1 gene expression (Human ESCs [5]; [9]): not dependent on either noggin treatment | NGN3 expression induced at day 12 (pancreatic endocrine differentiation) (Human ESCs [5]; [9]): highly dependent on the presence of noggin | Expression levels of PDX1 at days 9 or 11 (Human ESCs [8]; noggin 0, 30 or 100 ng/ml with retinoic acid 0.1 μM or 2 μM): very little effect | Expression of NGN3 at day 9 (Human ESCs [8]; noggin added to low dose RA (0.1 μM)): dramatically enhanced
